Laboratory results published in patent US20080125432A1 (Devgen NV, priority 2004, published 2008).

Biological target: T1, INa (SCN5a) (Homo sapiens, UniProt Q14524)
T1 construct: endogenous in cells; host or cells: freshly isolated human atrial myocytes (bypass-surgery patients)
Assay: Whole-cell patch clamp in human atrial myocytes: INa
Assay type: cell-based
Conditions: n = 3 cells
Description: The blocking profile of the compounds of the invention is determined on the following channels of the human atrial myocytes: INa, Ito, Isus and IK1 channel currents.
Human atrial myocytes: Myocytes were prepared from specimens with grossly normal anatomical aspect, excised from hearts of patients with normal P-wave electrocardiogram, undergoing bypass surgery. Human atrial sample were obtained following approval by the ethical committee. Atrial tissue samples were quickly immersed in a cardioplegic solution (in mM: 50 KH2PO4, 8 MgSO4, 10 NaHCO3, 5 adenosine, 25 taurine, 140 glucose, and 100 mannitol, titrated to a pH of 7.4 and bubbled with 100% O2 at 0-4° C.) and rapidly delivered to the laboratory. The tissue was then minced onto 0.5-1 mm^2 chunks within 30 min after the excision procedure and transferred to a 50 ml conical tube containing wash solution deprived of Ca^2+ (in mM: 137 NaCl, KH2PO4, 1 MgSO4, 10 taurine, 10 glucose, 5 HEPES, and 100 μmol/L (µM) EGTA; pH=7.4, room temperature 22-24° C.). […]
Experiments were performed at room temperature (20-25° C.) for INa and at 32-34° C. for Ito, Isus, IK1. Currents were measured using the whole-cell variant of the patch clamp method. […]
Raw data and mean ±SEM are given. […] This is measured as current reduction after a steady-state effect has been reached in the presence of drug relative to current amplitude before drug was introduced (control). […]

T1 sequence (Q14524 whole entry): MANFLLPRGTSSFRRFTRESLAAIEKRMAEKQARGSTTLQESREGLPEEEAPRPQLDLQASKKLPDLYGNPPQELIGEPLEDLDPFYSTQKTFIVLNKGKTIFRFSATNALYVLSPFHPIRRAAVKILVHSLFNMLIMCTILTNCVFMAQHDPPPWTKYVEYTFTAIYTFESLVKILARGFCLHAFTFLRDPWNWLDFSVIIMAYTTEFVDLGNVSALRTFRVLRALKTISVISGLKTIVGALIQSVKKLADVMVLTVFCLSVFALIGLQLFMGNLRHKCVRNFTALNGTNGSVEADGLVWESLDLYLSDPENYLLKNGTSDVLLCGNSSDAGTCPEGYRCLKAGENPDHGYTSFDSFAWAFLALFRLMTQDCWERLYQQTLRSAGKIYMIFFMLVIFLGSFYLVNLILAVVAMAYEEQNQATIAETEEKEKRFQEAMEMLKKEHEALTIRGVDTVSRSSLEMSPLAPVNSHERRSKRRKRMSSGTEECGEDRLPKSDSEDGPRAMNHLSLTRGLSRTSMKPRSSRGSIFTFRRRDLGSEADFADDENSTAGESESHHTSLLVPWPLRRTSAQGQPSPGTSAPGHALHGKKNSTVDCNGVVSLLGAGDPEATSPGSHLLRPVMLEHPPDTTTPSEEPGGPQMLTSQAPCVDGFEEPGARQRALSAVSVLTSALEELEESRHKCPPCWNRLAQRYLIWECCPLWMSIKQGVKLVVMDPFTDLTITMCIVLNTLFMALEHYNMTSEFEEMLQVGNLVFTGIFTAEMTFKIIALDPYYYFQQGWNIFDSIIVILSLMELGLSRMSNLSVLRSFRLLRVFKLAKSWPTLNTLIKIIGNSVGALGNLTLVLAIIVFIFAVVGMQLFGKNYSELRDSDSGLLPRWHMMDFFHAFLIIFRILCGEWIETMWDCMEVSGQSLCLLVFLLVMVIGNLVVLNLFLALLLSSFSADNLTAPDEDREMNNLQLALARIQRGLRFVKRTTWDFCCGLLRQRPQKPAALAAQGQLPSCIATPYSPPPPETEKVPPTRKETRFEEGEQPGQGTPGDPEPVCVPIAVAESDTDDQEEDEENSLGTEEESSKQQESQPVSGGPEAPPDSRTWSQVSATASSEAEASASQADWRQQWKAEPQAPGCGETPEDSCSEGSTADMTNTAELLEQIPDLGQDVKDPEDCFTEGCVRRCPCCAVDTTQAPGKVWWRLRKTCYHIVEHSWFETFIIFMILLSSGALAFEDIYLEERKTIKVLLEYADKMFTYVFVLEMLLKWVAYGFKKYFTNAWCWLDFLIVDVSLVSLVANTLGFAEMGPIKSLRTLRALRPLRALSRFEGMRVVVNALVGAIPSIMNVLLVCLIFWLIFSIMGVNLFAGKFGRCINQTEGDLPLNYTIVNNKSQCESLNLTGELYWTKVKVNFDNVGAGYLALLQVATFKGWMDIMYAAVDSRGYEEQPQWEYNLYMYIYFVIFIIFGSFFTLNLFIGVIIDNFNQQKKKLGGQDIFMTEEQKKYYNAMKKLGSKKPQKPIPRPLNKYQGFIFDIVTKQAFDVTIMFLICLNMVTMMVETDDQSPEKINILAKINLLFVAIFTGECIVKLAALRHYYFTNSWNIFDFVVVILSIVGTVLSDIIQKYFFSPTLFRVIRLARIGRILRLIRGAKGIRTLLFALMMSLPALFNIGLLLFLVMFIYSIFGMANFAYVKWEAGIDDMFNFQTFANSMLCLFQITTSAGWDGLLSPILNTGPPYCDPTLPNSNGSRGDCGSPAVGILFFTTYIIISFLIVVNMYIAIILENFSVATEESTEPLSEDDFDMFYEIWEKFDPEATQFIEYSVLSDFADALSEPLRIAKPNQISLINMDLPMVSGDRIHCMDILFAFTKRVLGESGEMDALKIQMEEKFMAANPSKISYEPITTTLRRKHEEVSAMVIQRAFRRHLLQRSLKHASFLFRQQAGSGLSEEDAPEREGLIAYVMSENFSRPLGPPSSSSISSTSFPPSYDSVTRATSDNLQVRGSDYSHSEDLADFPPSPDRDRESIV

COc1ccccc1Nc1nc(C)c(C(=O)N[C@H]2CCC[C@@H]2OCc2ccccc2)s1 [Compound 68, 2-(2-methoxy-phenylamino)-4-methyl-thiazole-5-carboxylic acid (1S,2S)-2-(benzyloxycyclopent-1-yl) amide]
Block at 10 μM in %: INa (SCN5a): 0 ± 0.5%
